Structures can show the parent of a compound that is named as a salt.
Key:
[1] = Rat dual-probe brain microdialysis study; format: in vivo; conditions: rat MD study, 1 mg/kg p.o.
in vivo = conditions: male, Wistar, rat, plasma, other: p.o. and i.v.
[2] = human plasma; cited from earlier work
dopamine biosynthesis = test: NSD-1015-induced DOPA accumulation in striatum of reserpine-treated rats; format: in vivo, rat; conditions: p.o.
[3] = system: dopamine turnover ((HVA+DOPAC)/DA); test: Dopamine turnover index in rat striatum; format: in vivo; conditions: p.o.
[4] = system: serotonin turnover (5-HIAA/5-HT); test: Serotonin turnover index in rat frontal cortex; format: in vivo; conditions: p.o.

CN(C)C(=O)N[C@H]1CC[C@H](CCN2CCN(c3cccc(Cl)c3Cl)CC2)CC1 [CAR, trans-N-[4-[2-[4-(2,3-dichlorophenyl)piperazin-1-yl]ethyl]cyclohexyl]-N’,N’-dimethylureahydrochloride]
free extracellular level as percent of total brain exposure [1]: 1–2%
extracellular levels in the brain ([1]; listed as cariprazine, 1 mg/kg): 2.6 to 9.9 nM
half-life (in vivo): 2 to 3 h
half-life in humans [2]: 24 to 72 h
effect on NSD-1015-induced accumulation of DOPA (dopamine biosynthesis): inhibited the NSD-1015-induced accumulation of DOPA
effect on dopamine turnover [3]: dose-dependently enhanced dopamine turnover
effect on serotonin turnover [4]: slightly reduced serotonin turnover

— article PMC6754336 (Drug Design, Development and Therapy, 2019)
